≈ marks a conversion by molar mass, not a printed value. Bridge positions count the residues as written; N and C are the ends. Square brackets hold non-standard residues; d marks the D form. Peptide text beside a SMILES is read from it. * marks the point of attachment. Ileψ(thiazoline)Cys = CC[C@H](C)[C@H](N)C1=N[C@H](C(=O)*)CS1; dOrn = NCCC[C@@H](N)C(=O)O
Experiments:
Mycobacterium avium [1] = assay: Antimycobacterial activity against INH,RIF,OFX,EMB-resistant Mycobacterium avium 330/88 after 14 days by microdilution method; type: functional; settings: 330/88, 336 h
Mycobacterium kansasii [2] = assay: Antimycobacterial activity against Mycobacterium kansasii 6509/96 after 14 days by microdilution method; type: functional; settings: 6509/96, 336 h
Mycobacterium kansasii [3] = assay: Antimycobacterial activity against Mycobacterium kansasii 235/80 after 7 days by microdilution method; type: functional; settings: 235/80, 168 h
Mycobacterium avium [4] = assay: Antimycobacterial activity against INH,RIF,OFX,EMB-resistant Mycobacterium avium 330/88 after 21 days by microdilution method; type: functional; settings: 330/88, 504 h
[5] = test system: Mycobacterium tuberculosis; assay: Antimycobacterial activity against Mycobacterium tuberculosis H37Rv 331/88 after 14 days by microdilution method; type: functional; settings: H37Rv 331/88, 336 h
Mycobacterium kansasii [6] = assay: Antimycobacterial activity against Mycobacterium kansasii 6509/96 after 21 days by microdilution method; type: functional; settings: 6509/96, 504 h
Mycobacterium kansasii [7] = assay: Antimycobacterial activity against Mycobacterium kansasii 235/80 after 21 days by microdilution method; type: functional; settings: 235/80, 504 h
[8] = test system: Mycobacterium tuberculosis; assay: Antimycobacterial activity against Mycobacterium tuberculosis H37Rv 331/88 after 21 days by microdilution method; type: functional; settings: H37Rv 331/88, 504 h
Mycobacterium kansasii [9] = assay: Antimycobacterial activity against Mycobacterium kansasii 6509/96 after 7 days by microdilution method; type: functional; settings: 6509/96, 168 h
Mycobacterium kansasii [10] = assay: Antimycobacterial activity against Mycobacterium kansasii 235/80 after 14 days by microdilution method; type: functional; settings: 235/80, 336 h
Trichosporon asahii [11] = assay: Antifungal activity against Trichosporon asahii 1188 after 48 hrs by broth microdilution method; type: functional; settings: Trichosporon asahii, 1188, 48 h
Trichosporon asahii [12] = assay: Antifungal activity against Trichosporon asahii 1188 after 24 hrs by broth microdilution method; type: functional; settings: Trichosporon asahii, 1188, 24 h
[13] = Selectivity index, ratio of IC50 for human HepG2 cells to MIC for atypical mycobacteria
[14] = Selectivity index, ratio of IC50 for human HepG2 cells to MIC for Mycobacterium tuberculosis; type: toxicity, cell-based; settings: read-out: Selectivity Index
HepG2 [15] = assay: Cytostatic activity against human HepG2 cells after 72 hrs by MTT assay; type: functional, cell-based; settings: HepG2, 72 h
HepG2 [16] = assay: Cytotoxicity against human HepG2 cells after 72 hrs by MTT assay; type: cell-based; settings: HepG2, 72 h
[17] = test system: Staphylococcus epidermidis; assay: Antibacterial activity against Staphylococcus epidermidis H 6966/08 after 24 hrs by broth microdilution method; type: functional; settings: H 6966/08, 24 h
Staphylococcus aureus [18] = assay: Antibacterial activity against methicillin-resistant Staphylococcus aureus H 5996/08 after 24 hrs by broth microdilution method; type: functional; settings: H 5996/08, 24 h
Staphylococcus aureus [19] = assay: Antibacterial activity against Staphylococcus aureus CCM 4516/08 after 24 hrs by broth microdilution method; type: functional; settings: CCM 4516/08, 24 h
Staphylococcus aureus [20] = assay: Antibacterial activity against methicillin-resistant Staphylococcus aureus H 5996/08 after 48 hrs by broth microdilution method; type: functional; settings: H 5996/08, 48 h
Enterococcus sp. [21] = assay: Antibacterial activity against Enterococcus sp. J 14365/08 after 48 hrs by broth microdilution method; type: functional; settings: J 14365/08, 48 h
[22] = test system: Staphylococcus epidermidis; assay: Antibacterial activity against Staphylococcus epidermidis H 6966/08 after 48 hrs by broth microdilution method; type: functional; settings: H 6966/08, 48 h
Staphylococcus aureus [23] = assay: Antibacterial activity against Staphylococcus aureus CCM 4516/08 after 48 hrs by broth microdilution method; type: functional; settings: CCM 4516/08, 48 h
[24] = Selectivity index, ratio of IC50 for human HepG2 cells to MIC for Staphylococci
Enterococcus sp. [25] = assay: Antibacterial activity against Enterococcus sp. J 14365/08 after 24 hrs by broth microdilution method; type: functional; settings: J 14365/08, 24 h

Structure (SMILES) | MIC (Mycobacterium avium [1]) [µM] | MIC (Mycobacterium kansasii [2]) [µM] | MIC (Mycobacterium kansasii [3]) [µM] | MIC (Mycobacterium avium [4]) [µM] | MIC [5] [µM] | MIC (Mycobacterium kansasii [6]) [µM] | MIC (Mycobacterium kansasii [7]) [µM] | MIC [8] [µM] | MIC (Mycobacterium kansasii [9]) [µM] | MIC (Mycobacterium kansasii [10]) [µM] | IC50 (HepG2 [16]) [µM] | further results
O=C(Oc1ccc(Cl)cc1C(=O)Nc1ccc(C(F)(F)F)cc1)c1ccc(C(F)(F)F)cc1 | 1 (≈ 0.488 µg/mL) | 2 (≈ 0.976 µg/mL) | 1 (≈ 0.488 µg/mL) | 4 (≈ 1.95 µg/mL) | 1 (≈ 0.488 µg/mL) | 4 (≈ 1.95 µg/mL) | 4 (≈ 1.95 µg/mL) | 1 (≈ 0.488 µg/mL) | 1 (≈ 0.488 µg/mL) | 2 (≈ 0.976 µg/mL) |  | 
OC(Cn1cncn1)(Cn1cncn1)c1ccc(F)cc1F [FLUCONAZOLE] |  |  |  |  |  |  |  |  |  |  |  | MIC (Trichosporon asahii [11]): 9 µM (≈ 2.76 µg/mL); MIC (Trichosporon asahii [12]): 4 µM (≈ 1.23 µg/mL)
O=C(Oc1ccc(Br)cc1C(=O)Nc1ccc(C(F)(F)F)cc1)c1ccc(Br)cc1 | 8 (≈ 4.35 µg/mL) | 4 (≈ 2.17 µg/mL) | 1 (≈ 0.543 µg/mL) | 8 (≈ 4.35 µg/mL) | 1 (≈ 0.543 µg/mL) | 4 (≈ 2.17 µg/mL) | 4 (≈ 2.17 µg/mL) | 1 (≈ 0.543 µg/mL) | 4 (≈ 2.17 µg/mL) | 2 (≈ 1.09 µg/mL) | > 50 | Selectivity Index [13]: >6.25; selectivity ratio [14]: > 50; IC50 (HepG2 [15]): 4.2 µM
O=C(Oc1ccc(Br)cc1C(=O)Nc1ccc(C(F)(F)F)cc1)c1ccccc1 | 4 (≈ 1.86 µg/mL) | 2 (≈ 0.928 µg/mL) | 2 (≈ 0.928 µg/mL) | 4 (≈ 1.86 µg/mL) | 1 (≈ 0.464 µg/mL) | 2 (≈ 0.928 µg/mL) | 2 (≈ 0.928 µg/mL) | 1 (≈ 0.464 µg/mL) | 2 (≈ 0.928 µg/mL) | 2 (≈ 0.928 µg/mL) |  | 
O=C(Oc1ccc(Cl)cc1C(=O)Nc1ccc(Cl)c(Cl)c1)c1ccccc1 | 8 (≈ 3.37 µg/mL) | 2 (≈ 0.841 µg/mL) | 2 (≈ 0.841 µg/mL) | 8 (≈ 3.37 µg/mL) | 1 (≈ 0.421 µg/mL) | 2 (≈ 0.841 µg/mL) | 4 (≈ 1.68 µg/mL) | 1 (≈ 0.421 µg/mL) | 1 (≈ 0.421 µg/mL) | 4 (≈ 1.68 µg/mL) |  | 
O=C(Nc1ccc(Cl)c(Cl)c1)c1cc(Cl)ccc1O | 32 (≈ 10.1 µg/mL) | 8 (≈ 2.53 µg/mL) | 4 (≈ 1.27 µg/mL) | 32 (≈ 10.1 µg/mL) | 4 (≈ 1.27 µg/mL) | 8 (≈ 2.53 µg/mL) | 8 (≈ 2.53 µg/mL) | 8 (≈ 2.53 µg/mL) | 8 (≈ 2.53 µg/mL) | 8 (≈ 2.53 µg/mL) |  | 
O=C(Nc1ccc(C(F)(F)F)cc1)c1cc(Cl)ccc1O | 8 (≈ 2.53 µg/mL) | 2 (≈ 0.631 µg/mL) | 1 (≈ 0.316 µg/mL) | 8 (≈ 2.53 µg/mL) | 2 (≈ 0.631 µg/mL) | 2 (≈ 0.631 µg/mL) | 2 (≈ 0.631 µg/mL) | 2 (≈ 0.631 µg/mL) | 2 (≈ 0.631 µg/mL) | 2 (≈ 0.631 µg/mL) |  | 
CC[C@H](C)[C@H](N)C1=N[C@H](C(=O)N[C@@H](CC(C)C)C(=O)N[C@H](CCC(=O)O)C(=O)N[C@H](C(=O)N[C@H]2CCCCNC(=O)[C@H](CC(N)=O)NC(=O)[C@@H](CC(=O)O)NC(=O)[C@H](Cc3cnc[nH]3)NC(=O)[C@@H](Cc3ccccc3)NC(=O)[C@H]([C@@H](C)CC)NC(=O)[C@@H](CCCN)NC2=O)[C@@H](C)CC)CS1 [BACITRACIN] ({Ileψ(thiazoline)Cys}-L[dE]IK[dOrn]I[dF]H[dD]N; lactam 4-C) |  |  |  |  |  |  |  |  |  |  | 255 | MIC [17]: 15.6 µM (≈ 22.2 µg/mL); MIC (Staphylococcus aureus [18]): 15.6 µM (≈ 22.2 µg/mL); MIC (Staphylococcus aureus [19]): 7.81 µM (≈ 11.1 µg/mL); MIC (Staphylococcus aureus [20]): 15.6 µM (≈ 22.2 µg/mL); MIC (Enterococcus sp. [21]): 62.5 µM (≈ 88.9 µg/mL); MIC [22]: 31.2 µM (≈ 44.5 µg/mL); MIC (Staphylococcus aureus [23]): 15.6 µM (≈ 22.2 µg/mL); Selectivity Index [24]: 8.1; MIC (Enterococcus sp. [25]): 15.6 µM (≈ 22.2 µg/mL)
O=C(Nc1ccc(C(F)(F)F)cc1)c1cc(Br)ccc1O | 2 (≈ 0.72 µg/mL) | 4 (≈ 1.44 µg/mL) | 2 (≈ 0.72 µg/mL) | 2 (≈ 0.72 µg/mL) | 1 (≈ 0.36 µg/mL) | 4 (≈ 1.44 µg/mL) | 4 (≈ 1.44 µg/mL) | 1 (≈ 0.36 µg/mL) | 2 (≈ 0.72 µg/mL) | 2 (≈ 0.72 µg/mL) |  | 
O=C(Oc1ccc(Br)cc1C(=O)Nc1ccc(C(F)(F)F)cc1)c1ccc([N+](=O)[O-])cc1 | 1 (≈ 0.509 µg/mL) | 0.5 (≈ 0.255 µg/mL) | 0.5 (≈ 0.255 µg/mL) | 2 (≈ 1.02 µg/mL) | 0.5 (≈ 0.255 µg/mL) | 1 (≈ 0.509 µg/mL) | 1 (≈ 0.509 µg/mL) | 0.5 (≈ 0.255 µg/mL) | 0.5 (≈ 0.255 µg/mL) | 1 (≈ 0.509 µg/mL) | > 50 | Selectivity Index [13]: >25; selectivity ratio [14]: > 100; IC50 (HepG2 [15]): 1.25 µM

— ChEMBL document CHEMBL3396981, “Synthesis and in vitro biological evaluation of 2-(phenylcarbamoyl)phenyl 4-substituted benzoates” (Bioorg Med Chem, 2015)
